{
  "source": "patent US20040067891A1",
  "about": "“Therapeutic and/or preventive agents for diseases due to retinal ischemia” (priority 2000, published 2004)",
  "key": {"[1]": {"test_system": "retinal disorders due to transient retinal ischemia", "experiment": "rat model with retinal disorders due to transient retinal ischemia", "assay_type": "in vivo", "conditions": "SD male rats", "protocol": "Effects of the compound represented by the formula (I) (which will hereinafter be called “compound of the present invention”) on a rat model with retinal disorders due to transient retinal ischemia;\nThe model with retinal disorders due to transient retinal ischemia was prepared in accordance with the method described in Eur. J. Pharmaco., 350, 53-57 (1998).\nAfter rats (SD male rats, 9-week-old (purchased from Charles River Japan, Inc.)) were weighed, pentobarbital sodium (Pentbarbital Na) (50-75 mg/kg) was intraperitoneally administered to anesthetize them. They were fixed to a platform, and kept warm at around 37° C. A perfusate for ophthalmic surgery (“BSS PLUS”; product of Santen Pharmaceutical) was hung so that the height from the position of the eyes of the rats would be 170 cm±5 cm. This height permitted application of pressure of about 130 mmHg. To the perfusate bottle was connected an extension tube and an injection needle (27 gauge×¾ inch) was attached to another end of the tube. […]\nAfter the eyeballs were immobilized in a Davidson's fixative and a paraffin section was prepared at the cross-section passing through the optic papilla, it was dyed with hematoxylin and eosin (H.E.). […] The number of granule cells (GCL (ganglion cell layer), cell/mm) per 1 mm width of the optic papilla was counted by optical microscopic examination. […]"}, "[2]": {"test_system": "rats", "experiment": "single-dose oral toxicity in rats", "assay_type": "in vivo, rat", "conditions": "single-dose oral administration to rats", "protocol": "The compound represented by the formula (I) or a non-toxic salt thereof has markedly low toxicity so that use of it as a pharmaceutical can be considered as safe enough. For example, the minimum lethal dose of the compound represented by the formula (I) by single-dose oral administration to rats was 2000 mg/kg or more."}},
  "data": [
    {"smiles": "CC(C)(C)OC(=O)N1CSC[C@H]1C(=O)N[C@@H](CSCC1CCCCC1)C(=O)NC1CCN(Cc2ccccc2)CC1", "note": "[Compound of the present invention, (2R)-N-(1-Benzylpiperidin-4-yl)-3-cyclohexylmethylthio-2-((4R)-3-t-butoxycarbonylthiazolidin-4-ylcarbonylamino)propanamide]", "values": [
      {"measurement": "The number of granule cells (GCL)", "setting": "[1]; 100 mg/5 mL/kg oral one hour before 45 min ischemia, counted one week after ischemia, per 1 mm width of the optic papilla", "value": 49.2, "unit": "cell/mm"},
      {"measurement": "inhibiting activity to the model of retinal disorders due to transient retinal ischemia", "setting": "[1]; 100 mg/kg oral one hour before ischemia, from granule cell counts of Table 1", "value": 34, "unit": "%"},
      {"measurement": "minimum lethal dose", "setting": "[2]", "value": "≥ 2000", "unit": "mg/kg"}
    ]}
  ]
}
